Measured values from patent publication US9700047B2, “Macrocyclic picolinamides as fungicides” (Dow AgroSciences LLC, priority 2014, dated 2017).
Read-outs that look alike come from different tables or passages of the source.

Legend:
[1] = test system: Puccinia triticina; Synonym: Puccinia recondita f sp. tritici; experiment: Wheat brown rust (PUCCRT) disease control on wheat seedlings; format: in vivo; settings: for pest or weed control at 121.5 g/ha: Low Volume activity at 121.5 g/H; for pest or weed control at 100 ppm: High Volume activity at 100 ppm
Experimental: All fungicides were evaluated using the aforementioned method for their activity vs. all target diseases, unless stated otherwise. Wheat leaf blotch and brown rust activity were also evaluated using track spray applications, in which case the fungicides were formulated as EC formulations, containing 0.1% Trycol 5941 in the spray solutions. Wheat plants (variety Yuma) were grown from seed in a greenhouse in 50% mineral soil/50% soil-less Metro mix until the first leaf was fully emerged, with 7-10 seedlings per pot. These plants were inoculated with an aqueous spore suspension of Puccinia triticina either prior to or after fungicide treatments. […] The plants were then transferred to a greenhouse set at 24° C. for disease to develop. Fungicide formulation, application and disease assessment followed the procedures as described in the Example A.

Rhyncosporium secalis = experiment: Barley scald (RHYNSE) disease control on barley seedlings; format: in vivo; settings: 100 ppm; 1 Day Protectant
Experimental: All fungicides were evaluated using the aforementioned method for their activity vs. all target diseases, unless stated otherwise. Wheat leaf blotch and brown rust activity were also evaluated using track spray applications, in which case the fungicides were formulated as EC formulations, containing 0.1% Trycol 5941 in the spray solutions. Barley seedlings (variety Harrington) were propagated in soil-less Metro mix, with each pot having 8 to 12 plants, and used in the test when first leaf was fully emerged. Test plants were inoculated by an aqueous spore suspension of Rhyncosporium secalis 24 hr after fungicide treatments. After inoculation the plants were kept in a dew room at 20° C. with 100% relative humidity for 48 hr. The plants were then transferred to a greenhouse set at 20° C. for disease to develop. Fungicide formulation, application and disease assessment on the sprayed leaves followed the procedures as described in the Example A.

[2] = 24 h, 1 Day Protectant, read-out: PUCCRT 1DP % Control rating
[3] = 72 h, 3 Day Curative, read-out: PUCCRT 3DC % Control rating

Compound	pest or weed control at 121.5 g/ha [1, 2] [%]	pest or weed control at 121.5 g/ha [1, 3] [%]	RHYNSE 1DP Disease Control rating (Rhyncosporium secalis)	pest or weed control at 100 ppm [1, 2] [%]	pest or weed control at 100 ppm [1, 3] [%]
CCCC[C@@H]1[C@@H](Cc2ccc(C(F)(F)F)cc2)CCC[C@H](NC(=O)c2nccc(OC)c2OCOC(C)=O)C(=O)O[C@H]1C [Compound 3]	> 70	< 70	B (≦70)	–	–
COc1ccnc(C(=O)N[C@H]2CCC[C@H](Cc3ccccc3)[C@@H](CCC(C)C)[C@H](C)OC2=O)c1O [Compound 88]	–	–	–	> 70	< 70
CCC[C@H]1CCC[C@H](NC(=O)c2nccc(OC)c2O)C(=O)O[C@@H](C)[C@@H]1Cc1ccccc1 [Compound 82]	–	–	–	> 70	> 70
COc1ccnc(C(=O)N[C@H]2CCC[C@H](Cc3ccc(C(F)(F)F)cc3)[C@@H](Cc3ccc(F)cc3)[C@H](C)OC2=O)c1O [Compound 86]	–	–	–	> 70	< 70
CCOCC(=O)OCOc1c(OC)ccnc1C(=O)N[C@H]1CCC[C@H](CCC(C)C)[C@@H](CCc2ccccc2)[C@H](C)OC1=O [Compound 35]	> 70	< 70	–	–	–
COc1ccnc(C(=O)N[C@H]2CCC[C@H](Cc3ccc(Cl)cc3)[C@@H](C3CCCC3)[C@H](C)OC2=O)c1OCOC(C)=O [Compound 29]	> 70	< 70	–	–	–
COc1ccnc(C(=O)N[C@H]2CCC[C@H](Cc3ccccc3)[C@@H](CCC(C)C)[C@H](C)OC2=O)c1OCOC(=O)C(C)C [Compound 50]	> 70	< 70	–	–	–
COc1ccnc(C(=O)N[C@H]2CCC[C@H](CC3CC3)[C@@H](Cc3ccccc3)[C@H](C)OC2=O)c1OC(C)=O [Compound 60]	> 70	> 70	–	–	–
COc1ccnc(C(=O)N[C@H]2CCC[C@H](CCC(C)C)[C@@H](C3CCCC3)[C@H](C)OC2=O)c1O [Compound 87]	–	–	–	> 70	< 70
COc1ccnc(C(=O)N[C@H]2CCC[C@H](CCCc3ccccc3)[C@@H](CC(C)C)[C@H](C)OC2=O)c1O [Compound 92]	–	–	–	> 70	< 70
COc1ccnc(C(=O)N[C@H]2CCC[C@H](CCCc3ccccc3)[C@@H](CCc3ccccc3)[C@H](C)OC2=O)c1OC(C)=O [Compound 33]	< 70	< 70	–	–	–
COc1ccnc(C(=O)N[C@H]2CCC[C@H](CC3CC3)[C@@H](Cc3ccccc3)[C@H](C)OC2=O)c1OCOC(C)=O [Compound 61]	> 70	> 70	–	–	–
COc1ccnc(C(=O)N[C@H]2CCC[C@H](Cc3ccc(C(F)(F)F)cc3)[C@@H](Cc3ccc(OC(F)(F)F)cc3)[C@H](C)OC2=O)c1O [Compound 96]	–	–	–	< 70	< 70
COc1ccnc(C(=O)N[C@H]2CCC[C@H](Cc3ccccc3)[C@@H](Cc3ccccc3)[C@H](C)OC2=O)c1OC(C)=O [Compound 5]	> 70	> 70	–	–	–
CCC[C@H]1CCC[C@H](NC(=O)c2nccc(OC)c2O)C(=O)O[C@@H](C)[C@@H]1c1ccccc1 [Compound 91]	–	–	–	> 70	< 70
